This is an account of results in article PMC3996874, “Esterase Active in Polar Organic Solvents from the Yeast Pseudozyma sp. NII 08165” (Enzyme Research, 2014).

The test system of the assay is T1, LIP1 esterase.
T1 construct: single band of 175 kDa on SDS-PAGE
Put plainly: pNP release at […] nm, Michaelis-Menten fit (GraphPad Prism). Format: biochemical, Pseudozyma sp. NII 08165. The settings on record: pH 8, 60 °C; 0.05-0.7 mM pNPP.

Usually Km stands for the concentration of substrate that gives half-maximal velocity. In the case of `CCCCCCCCCCCCCCCC(=O)Oc1ccc([N+](=O)[O-])cc1` [para-nitrophenyl palmitate], the Km came out at 10 µM.
